From patent US6737383B1, “Herbicidal oxadiazolidines” (priority 1999, dated 2004)

Experiments:
[1] = tested on: corn; test: Test B pre/postemergence corn; format: in vivo, Zea mays
How it was run: (§1)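 Herbicidal effect was estimated by eye on a ten-point control scale after plants spent twelve to sixteen days in a greenhouse following soil or foliar treatment. Foliar sprays targeted plants at one to four leaves; all doses were formulated in a non-phytotoxic solvent with surfactant.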

[2] = tested on: purple nutsedge; test: Test B pre/postemergence purple nutsedge; format: in vivo, Cyperus rotundus
How it was run: as §1

[3] = tested on: smallflower flatsedge; test: Test B flood test smallflower flatsedge; format: in vivo, Cyperus difformis
How it was run: (§2)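 Plants were grown to the 2-leaf stage before treatment with test chemical, then held in a greenhouse for twelve to sixteen days. Injury was visually rated against untreated controls on a 0–10 scale, where 0 is no effect and 10 is complete control.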

[4] = tested on: wheat; test: Test B pre/postemergence wheat; format: in vivo, Triticum aestivum
How it was run: as §1

[5] = tested on: bedstraw; test: Test B pre/postemergence bedstraw; format: in vivo, Galium aparine; details: Postemergence
How it was run: as §1

[6] = tested on: surinam grass; test: Test B pre/postemergence surinam grass; format: in vivo, Brachiaria decumbens
How it was run: as §1

[7] = tested on: giant foxtail; test: Test B pre/postemergence giant foxtail; format: in vivo, Setaria faberii
How it was run: as §1

[8] = tested on: duck salad; test: Test B flood test duck salad; format: in vivo, Heteranthera limosa; details: for Plant response rating, Ducksalad: scale 0 to 10, 0 is no effect, 10 is complete control; for Ducksalad plant response rating: scale of 0 to 10 where 0 is no effect and 10 is complete control
How it was run: as §2

[9] = tested on: velvetleaf; test: Test B pre/postemergence velvetleaf; format: in vivo, Abutilon theophrasti
How it was run: as §1

[10] = tested on: pigweed; test: Test B pre/postemergence pigweed; format: in vivo, Amaranthus retroflexus
How it was run: as §1

[11] = tested on: blackgrass; test: Test B pre/postemergence blackgrass; format: in vivo, Alopecurus myosuroides
How it was run: as §1

[12] = tested on: rape; test: Test B pre/postemergence rape; format: in vivo, Brassica napus
How it was run: as §1

[13] = tested on: rice; test: Test B flood test rice; format: in vivo, Oryza sativa
How it was run: as §2

[14] = tested on: bamyardgrass; test: Test B flood test barnyardgrass; format: in vivo, Echinochloa crus-galli; details: for Plant response rating, Barnyardgrass: scale 0 to 10, 0 is no effect, 10 is complete control; for Barnyardgrass plant response rating: scale of 0 to 10 where 0 is no effect and 10 is complete control
How it was run: as §2

[15] = tested on: crabgrass; test: Test B pre/postemergence crabgrass; format: in vivo, Digitaria sanguinalis
How it was run: as §1

[16] = tested on: wild oat; test: Test B pre/postemergence wild oat; format: in vivo, Avena fatua
How it was run: as §1

[17] = tested on: morningglory; test: Test B pre/postemergence morningglory; format: in vivo, Ipomoea hederacea
How it was run: as §1

[18] = tested on: sugar beet; test: Test B pre/postemergence sugar beet; format: in vivo, Beta vulgaris
How it was run: as §1

[19] = tested on: soybean; test: Test B pre/postemergence soybean; format: in vivo, Glycine max
How it was run: as §1

[20] = tested on: cocklebur; test: Test B pre/postemergence cocklebur; format: in vivo, Xanthium strumarium
How it was run: as §1

[21] = Postemergence, Rate 125 g/ha, scale 0 to 10, 0 is no effect, 10 is complete control
[22] = Postemergence, Rate 250 g/ha, scale 0 to 10, 0 is no effect, 10 is complete control
[23] = Postemergence, Rate 500 g/ha, scale of 0 to 10 where 0 is no effect and 10 is complete control
[24] = Preemergence, Rate 62 g/ha, scale 0 to 10 (0 no effect, 10 complete control)
[25] = Preemergence, Rate 125 g/ha, scale of 0 to 10 where 0 is no effect and 10 is complete control
[26] = Preemergence, Rate 250 g/ha, scale 0 to 10, 0 is no effect, 10 is complete control
[27] = Preemergence, Rate 500 g/ha, scale 0 to 10, 0 is no effect, 10 is complete control
[28] = Rate 62 g/ha, Postemergence, scale of 0 to 10 where 0 is no effect and 10 is complete control
[29] = Postemergence section (flood test species), Rate 500 g/ha, scale of 0 to 10 where 0 is no effect and 10 is complete control
[30] = flood test species, listed under Postemergence, Rate 250 g/ha, scale 0 to 10, 0 is no effect, 10 is complete control
[31] = Preemergence, Rate 250 g/ha, scale of 0 to 10 where 0 is no effect and 10 is complete control
[32] = Postemergence (flood test), Rate 125 g/ha
[33] = Postemergence section (flood test species), Rate 500 g/ha
[34] = Rate 62 g/ha, Postemergence (flood test species)
[35] = flood test species, listed under Postemergence, Rate 250 g/ha

Structure (SMILES): CC(C)N(C(=O)n1oc(=O)n(C2CCOCC2)c1=O)c1ccccc1 [Compound 416]
- Plant response rating, Corn [1, 21]: 0
- Plant response rating, Corn [1, 22]: 5
- Corn plant response rating [1, 23]: 7
- Plant response rating, Corn [1, 24]: 0
- Plant response rating, Corn [1, 25]: 0
- Corn plant response rating [1, 26]: 3
- Corn plant response rating [1, 27]: 6
- Corn plant response rating [1, 28]: 0
- Plant response rating, Nutsedge [2, 22]: 0
- Nutsedge plant response rating [2, 23]: 0
- Plant response rating, Nutsedge [2, 24]: 0
- Plant response rating, Nutsedge [2, 25]: 0
- Nutsedge plant response rating [2, 26]: 3
- Nutsedge plant response rating [2, 27]: 4
- S. Flatsedge plant response rating [3, 29]: 0
- Plant response rating, S. Flatsedge [3, 30]: 0
- Wheat plant response rating [4, 23]: 7
- Plant response rating, Wheat [4, 24]: 2
- Plant response rating, Wheat [4, 25]: 4
- Wheat plant response rating [4, 26]: 7
- Wheat plant response rating [4, 27]: 10
- Plant response rating, Bedstraw ([5]; Rate 125 g/ha, scale 0 to 10, 0 is no effect, 10 is complete control): 3
- Bedstraw plant response rating ([5]; Rate 500 g/ha, scale of 0 to 10 where 0 is no effect and 10 is complete control): 7
- Plant response rating, B. signalgrass [6, 21]: 6
- Plant response rating, B. signalgrass [6, 22]: 8
- B. signalgrass plant response rating [6, 23]: 9
- Plant response rating, B. signalgrass [6, 24]: 7
- Plant response rating, B. signalgrass [6, 25]: 7
- B. signalgrass plant response rating [6, 31]: 7
- B. signalgrass plant response rating ([6]; Preemergence, Rate 500 g/ha, scale of 0 to 10 where 0 is no effect and 10 is complete control): 9
- B. signalgrass plant response rating [6, 28]: 2
- Plant response rating, Giant foxtail [7, 21]: 8
- Plant response rating, Giant foxtail [7, 22]: 9
- Giant foxtail plant response rating [7, 23]: 9
- Plant response rating, Giant foxtail [7, 24]: 8
- Plant response rating, Giant foxtail [7, 25]: 10
- Giant foxtail plant response rating [7, 26]: 10
- Giant foxtail plant response rating [7, 27]: 10
- Giant foxtail plant response rating [7, 28]: 7
- Plant response rating, Ducksalad [8, 32]: 0
- Ducksalad plant response rating [8, 33]: 0
- Ducksalad plant response rating [8, 34]: 0
- Plant response rating, Ducksalad [8, 35]: 0
- Plant response rating, Velvetleaf [9, 22]: 0
- Velvetleaf plant response rating [9, 23]: 6
- Plant response rating, Velvetleaf [9, 24]: 0
- Plant response rating, Velvetleaf [9, 25]: 3
- Velvetleaf plant response rating [9, 26]: 6
- Velvetleaf plant response rating [9, 27]: 8
- Plant response rating, Redroot pigweed [10, 22]: 2
- Redroot pigweed plant response rating [10, 23]: 7
- Plant response rating, Redroot pigweed [10, 24]: 7
- Plant response rating, Redroot pigweed [10, 25]: 9
- Redroot pigweed plant response rating [10, 26]: 10
- Redroot pigweed plant response rating [10, 27]: 10
- Plant response rating, Blackgrass [11, 21]: 9
- Plant response rating, Blackgrass [11, 22]: 9
- Blackgrass plant response rating [11, 23]: 9
- Plant response rating, Blackgrass [11, 24]: 8
- Plant response rating, Blackgrass [11, 25]: 9
- Blackgrass plant response rating [11, 31]: 10
- Blackgrass plant response rating [11, 27]: 10
- Blackgrass plant response rating [11, 28]: 6
- Plant response rating, Rape [12, 22]: 3
- Rape plant response rating [12, 23]: 3
- Plant response rating, Rape [12, 24]: 7
- Plant response rating, Rape [12, 25]: 9
- Rape plant response rating [12, 26]: 9
- Rape plant response rating [12, 27]: 10
- Rice plant response rating [13, 29]: 0
- Plant response rating, Rice [13, 30]: 0
- Plant response rating, Barnyardgrass [14, 32]: 0
- Barnyardgrass plant response rating [14, 33]: 0
- Barnyardgrass plant response rating [14, 34]: 0
- Plant response rating, Barnyardgrass [14, 35]: 0
- Plant response rating, Crabgrass [15, 21]: 6
- Plant response rating, Crabgrass [15, 22]: 9
- Crabgrass plant response rating [15, 23]: 9
- Plant response rating, Crabgrass [15, 24]: 7
- Plant response rating, Crabgrass [15, 25]: 10
- Crabgrass plant response rating [15, 26]: 10
- Crabgrass plant response rating [15, 27]: 10
- Crabgrass plant response rating [15, 28]: 2
- Wild oats plant response rating [16, 23]: 7
- Plant response rating, Wild oats [16, 24]: 6
- Plant response rating, Wild oats [16, 25]: 7
- Wild oats plant response rating [16, 26]: 8
- Wild oats plant response rating [16, 27]: 10
- Plant response rating, Morningglory [17, 22]: 9
- Morningglory plant response rating [17, 23]: 9
- Plant response rating, Morningglory [17, 24]: 0
- Plant response rating, Morningglory [17, 25]: 4
- Morningglory plant response rating [17, 26]: 6
- Morningglory plant response rating [17, 27]: 8
- Plant response rating, Sugarbeets [18, 22]: 0
- Sugarbeets plant response rating [18, 23]: 2
- Plant response rating, Sugarbeets [18, 24]: 3
- Plant response rating, Sugarbeets [18, 25]: 4
- Sugarbeets plant response rating [18, 26]: 7
- Sugarbeets plant response rating [18, 27]: 9
- Plant response rating, Soybean [19, 22]: 6
- Soybean plant response rating [19, 23]: 7
- Plant response rating, Soybean [19, 24]: 0
- Plant response rating, Soybean [19, 25]: 4
- Soybean plant response rating [19, 26]: 7
- Soybean plant response rating [19, 27]: 9
- Plant response rating, Cocklebur [20, 21]: 0
- Plant response rating, Cocklebur [20, 22]: 0
- Cocklebur plant response rating [20, 23]: 5
- Plant response rating, Cocklebur [20, 24]: 0
- Plant response rating, Cocklebur [20, 25]: 0
- Cocklebur plant response rating [20, 26]: 0
- Cocklebur plant response rating [20, 27]: 4
- Cocklebur plant response rating [20, 28]: 0
